Data taken from patent US20250049927A1, “MODIFIED OLIGONUCLEOTIDE-DRUG CONJUGATE AND USE THEREOF” (INTEROLIGO CORPORATION., priority 2021, published 2025).

Tests used:
in vivo = conditions: male, Sprague-Dawley, rat, iv, 2 mg/kg
Experimental: Specifically, Sprague-Dawley male rats (8 weeks old, purchased from Youngbio) were acclimatized for 1 week in the animal room of the Catholic University Songsim Campus, and then pharmacokinetic experiments were performed. Rats were induced with isoflurane, an inhalation anesthetic, and PE50 (polyethylene tubing, Clay Adams, Becton Dickinson, NJ, USA) was inserted into the carotid (for blood collection) and jugular vein (for drug administration), followed by suturing with suture, and then end portions thereof were fixed to the back of the neck. During the surgery, anesthesia was maintained using ether, and about 0.5 mL of physiological saline solution containing heparin (20 units/mL) was injected to prevent blood from coagulating in the cannula. After completing the surgery, each rat was placed in a metabolic cage and allowed to fully recover from the anesthetic (for 4-5 hours). Then, the rats were divided into three groups of a group administered with Example 9 (IO176) alone (n=6), and a group administered with MMAE alone (n=7), and a group administered with gemcitabine alone (n=6), and each sample (Example 9, MMAE alone, gemcitabine alone) was administered into the rats. All of Example 9, MMAE and gemcitabine were dissolved in physiological saline at 2 mL per kg of body weight and administered into the jugular vein at doses of 40 mg/kg, 4 mg/kg and 2 mg/kg, respectively. When collecting blood, in order to prevent gemcitabine in 0.2 mL of blood from being converted into metabolites by cytidine deaminase, a light-shielding Eppendorf tube was prepared in which 2 μL of a solution containing tetrahydrouridine (hereinafter referred to as THU), a cytidine deaminase inhibitor, dissolved in distilled water at a concentration of 10 mg/mL was added in advance. […] Immediately after completing the blood collection, the plasma that had been stored in an ice-bath was quickly centrifuged at 4° C., and 100 μL of the plasma was dispensed into the light-shielding Eppendorf tube. The dispensed plasma was quickly stored in an ice-bath and maintained at −80° C. until LC-MS/MS analysis was performed. After collection of blood from the carotid, the rats were euthanized in a CO2 gas chamber.
• Analysis equipment: Agilent 1290 series HPLC, Qtrap 5500 LC-MS/MS • Detector: Tandem mass spectrometer (triple quadrouple type) • Ion source: Electrospray ionization (positive ion mode) • Desolvation temperature: 500° C. • Nebulizing gas: Nitrogen, Collision gas: Nitrogen • Quantitation: MRM (multiple reaction monitoring) mode • Stationary phase: Hypersil gold C18 column (2.1×100 mm, 1.9 μm, Thermo) Fisher Scientific Inc., Boston, USA) • Stationary phase temperature: 40° C. • Mobile phase: Distilled water (A) and acetonitrile (B) respectively containing 0.1% formic acid (95:5, v/v) (see [Table below) • Flow rate: 0.22 mL/min • Mass parameters: See [Table 8] below (CE: Collision energy)
Each of gemcitabine and dFdU standard product was dissolved in distilled water to prepare 400 μg/mL and 700 μg/mL of storage solutions and store them frozen. Then, the storage solutions were diluted with tertiary distilled water to prepare working solutions so that the concentrations were 0.200, 0.400, 0.800, 2.00, 10.0 and 40.0 μg/mL, respectively, followed by storing them in a refrigerator. 5′-Deoxy-5-fluorocytidine, an internal standard (IS), was dissolved in acetonitrile to prepare 50 ng/mL of working solution. The working solution of gemcitabine and dFdU was added to rat blank plasma containing THU to prepare standard plasma samples so that the plasma concentrations of gemcitabine and dFdU were 10, 20, 40, 100, 500 and 2000 ng/mL, respectively.
150 μL of 5′-Deoxy-5-fluorocytidine (50 ng/mL), the internal standard dissolved in acetonitrile, was added to 20 μL of rat plasma, and vortexed for 10 minutes, followed by centrifuging at 14,000 rpm at 4° C. for 5 minutes.

[1] = system: BxPC-3 pancreatic cancer cell lines; assay: Pancreatic cancer cell growth inhibition, WST assay; format: cell-based; conditions: BxPC-3, 72 hours treatment, absorbance 450 nm
Experimental: The in vitro anticancer efficacy of the modified oligonucleotide-drug conjugates was verified using pancreatic cancer cell lines. Pancreatic cancer cell lines (BxPC-3) were treated with the above-described examples and comparative examples at concentrations of 0, 0.01, 0.1, 1, 10, 100, 500 and 1000 μM, and the specific IC50 measurement method and measurement results are as follows.
All cell lines were cultured in a 5% CO2 incubator at 37° C. The BxPC-3 pancreatic cancer cell lines were cultured using a medium containing 10% FBS and 1% antibiotics put into ATCC modified RPMI-1640 (Thermo Scientific, USA). The medium was replaced once every 2-3 days, and passage-cultured at a time when about 70-90% of a culture dish was filled with the cells. First, the cells were washed with PBS, then 0.05% Trypsin-EDTA was added and cultured at 37° C. for 2 minutes, and then a new medium was added to inactivate trypsin. The cells were separated from trypsin and medium using a centrifuge, then another new medium was added and passaged at a ratio of 1:4, followed by culturing the same. All cells were periodically checked for contamination by mycoplasma using a kit (Intron, Korea), and in vitro efficacy evaluation experiments were conducted using only cells in which contamination was not detected.
Using WST reagent (Dongin LS, Korea), an inhibitory effect on pancreatic cancer cell growth by drug treatment was confirmed and IC50 was measured. An orange coloring substance called formazan is produced in WST by mitochondrial dehydrogenase within cells, which is effective only in living cells. The specific test method is as follows.
The cells cultured by the above-described method were dispensed by 2×10^4 into each well of a 96-well culture vessel and cultured for 24 hours. The medium of the cells attached to the culture vessel was replaced with an ATCC modified RPMI-1640 medium containing 5% FBS, and samples of the above-described modified oligonucleotide-drug conjugates (Examples 1-7 and 9-12, and Comparative Example 1-7, respectively) were treated at concentrations of 0, 0.01, 0.1, 1, 10, 100, 500 and 1000 μM. After 72 hours, 10 μl of WST reagent was added to each well and reacted for 2 hours. The produced formazan was measured with an absorbance at 450 nm using a Glomax plate meter (Promega, USA), and IC50 was evaluated according to the protocol in the device. IC50 evaluation results and graphs illustrating the same are shown in Table 2 below and FIGS. 19 to 27 (in Table 2, M=Gemcitabine, and N=5-FdU).

Molecule | IC50 [1] | also measured
Nc1ccn([C@@H]2O[C@H](CO)[C@@H](O)C2(F)F)c(=O)n1 [Gemcitabine, 2′,2′-difluoro-2′-deoxycytidine] |  | Vd (in vivo; in vivo): 2.73 ± 1.22 L/kg; AUC(0-inf) (in vivo; plasma): 7500 ng·h/mL; AUC(0-t) (in vivo; plasma): 7300 ng·h/mL; MRT (in vivo; plasma): 5.7 h; clearance (in vivo; plasma): 4.77 ± 1.43 mL/min/kg; half-life (in vivo; plasma): 6.8 ± 2.78 h
Comparative Example 1: control aptamer GGTGGTGGTGGTTGTGGTGGTGGTGG (SEQ ID NO: 1) | 89900 nM | 
Comparative Example 2 (GGTGGTGGTGGTTGNGGTGGTGGTGG; paclitaxel conjugate; modified_base 15 OTHER; deoxyuridine(dU)-acrylamide-C6-NH2) | 4590 nM | 
Comparative Example 3 (GGTGGTGGTGGTNGTGGTGGTGGTGG; paclitaxel via acrylamide-C6-NH-succinic acid linker; modified_base 13 OTHER; deoxyuridine(dU)-acrylamide-C6-NH2) | 40 nM | 
Comparative Example 6: DM1 conjugated to U of GGTGGTGGTGGTUGTGGTGGTGGTGG (SEQ ID NO: 3); linker -acrylamide-C6-NH-SMCC- (DNA ggtggtggtggtngtggtggtggtgg; DM1 via acrylamide-C6-NH-SMCC linker; modified_base 13 OTHER; deoxyuridine(dU)) | 3010 nM | 
Example 1: paclitaxel conjugated to U of GGTGGTGGTGGUMGTGGTGGTGGTGG (SEQ ID NO: 4), M=Gemcitabine; linker -acrylamide-C6-NH-succinic acid- (DNA GGTGGTGGTGGNNGTGGTGGTGGTGG; paclitaxel via linker; gemcitabine at M; modified_base 12 OTHER; deoxyuridine(dU); modified_base 13 OTHER; Gemcitabine) | 2210 nM | 
Example 2 (GGTGGTGGTGGNTNTGGTGGTGGTGG; paclitaxel via acrylamide-C6-NH-succinic acid linker; modified_base 12 OTHER; deoxyuridine(dU); modified_base 14 OTHER; gemcitabine) | 230 nM | 
Example 3 (GGTGGTGGTGGTNNTGGTGGTGGTGG; paclitaxel via acrylamide-C6-NH-succinic acid linker on U; modified_base 13 OTHER; deoxyuridine(dU); modified_base 14 OTHER; gemcitabine) | 1000 nM | 
Example 6: paclitaxel conjugated to U of GGTGGTGGTGGTUGTGGTGGTGGMGG (SEQ ID NO: 9), M=Gemcitabine; linker -acrylamide-C6-NH-succinic acid- (DNA GGTGGTGGTGGTNGTGGTGGTGGNGG; paclitaxel via linker; gemcitabine at M; modified_base 13 OTHER; deoxyuridine(dU); modified_base 24 OTHER; gemcitabine) | 140 nM | 
Example 7 (GGTGGTGGTGGTTGNGGTGGTGGNGG; paclitaxel via acrylamide-C6-NH-succinic acid linker on U; modified_base 15 OTHER; deoxyuridine(dU); modified_base 24 OTHER; gemcitabine) | 110 nM | 
Example 11: DM1 conjugated to U of GGTGGTGGTGGMUGMGGTGGTGGTGG (SEQ ID NO: 8), M=Gemcitabine; linker -acrylamide-C6-NH-SMCC- (DNA GGTGGTGGTGGNNGNGGTGGTGGTGG; gemcitabine nucleotides; DM1 via SMCC linker; modified_base 13 OTHER; deoxyuridine(dU); modified_base 12 OTHER; gemcitabine; modified_base 15 OTHER) | 26700 nM | 
